Two molecules from PMC9840614, “A gain-of-function TPC2 variant R210C increases affinity to PI(3,5)P2 and causes lysosome acidification and hypopigmentation” (Nature Communications, 2023) can be followed below.

Molecules are shown by their SMILES.

What all share (format): cell-based
Assay [1] concerns the target T1, Two Pore Channel 2 (TPC2), R210C (Homo sapiens, UniProt Q8NHX9, R210C).
T1 construct: gene TPCN2; EGFP-TPC2 R210C
The assay can be described thus: whole-endolysosome patch clamp, HEK293 vacuoles, […].

The target in assay [2] is T2, Two Pore Channel 2 (TPC2), R210C (Homo sapiens, UniProt Q8NHX9, L11A/L12A/R210C).
T2 construct: gene TPCN2; EGFP-tagged plasma membrane-targeted TPC2 L11A/L12A
The assay can be described thus: inside-out patch clamp, HEK293, concentration response. On the technique in general: The patch-clamp technique gives a direct electrical read-out from membranes.

Assay [3] has as its target T3, Two Pore Channel 2 (TPC2), R210A (Homo sapiens, UniProt Q8NHX9, R210A).
T3 construct: gene TPCN2
Kind of assay: channel activation EC50 (n = […], data not shown in figures).

Assay [4] deals with T4, Two Pore Channel 2 (TPC2) (Homo sapiens, UniProt Q8NHX9, L11A/L12A).
T4 construct: gene TPCN2; EGFP-tagged plasma membrane-targeted TPC2 L11A/L12A
The assay can be described thus: inside-out patch clamp, HEK293, concentration response.

T2 sequence (Q8NHX9 whole entry L11A/L12A/R210C): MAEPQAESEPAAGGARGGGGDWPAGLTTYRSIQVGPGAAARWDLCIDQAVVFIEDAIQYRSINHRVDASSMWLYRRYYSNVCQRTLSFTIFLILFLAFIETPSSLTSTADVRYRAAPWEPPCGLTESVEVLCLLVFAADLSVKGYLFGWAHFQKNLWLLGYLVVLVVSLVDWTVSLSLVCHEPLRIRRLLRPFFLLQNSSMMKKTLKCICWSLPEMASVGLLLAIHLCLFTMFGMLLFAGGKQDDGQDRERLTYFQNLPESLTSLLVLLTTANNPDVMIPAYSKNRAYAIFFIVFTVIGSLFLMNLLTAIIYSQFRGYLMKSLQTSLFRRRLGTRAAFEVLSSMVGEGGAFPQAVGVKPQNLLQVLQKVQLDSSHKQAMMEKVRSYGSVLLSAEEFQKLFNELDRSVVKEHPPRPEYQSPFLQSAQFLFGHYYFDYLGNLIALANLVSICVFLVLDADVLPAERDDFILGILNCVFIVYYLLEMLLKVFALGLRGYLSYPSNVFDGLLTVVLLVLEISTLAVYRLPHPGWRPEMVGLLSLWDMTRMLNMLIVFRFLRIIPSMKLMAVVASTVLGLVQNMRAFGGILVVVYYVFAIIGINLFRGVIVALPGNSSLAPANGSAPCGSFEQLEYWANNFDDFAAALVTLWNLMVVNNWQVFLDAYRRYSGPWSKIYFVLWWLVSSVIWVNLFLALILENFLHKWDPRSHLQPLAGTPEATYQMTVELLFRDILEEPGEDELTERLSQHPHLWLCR
T4 sequence (Q8NHX9 whole entry L11A/L12A): as the sequence (Q8NHX9 whole entry L11A/L12A/R210C) above, with C210R counted along it
T1 sequence (Q8NHX9 whole entry R210C): as the sequence (Q8NHX9 whole entry L11A/L12A/R210C) above, with A11L, A12L counted along it
T3 sequence (Q8NHX9 whole entry R210A): as the sequence (Q8NHX9 whole entry L11A/L12A/R210C) above, with A11L, A12L, C210A counted along it

`COc1ccc([C@H]2N[C@H](C(=O)O)Cc3c2[nH]c2ccccc32)cc1CN1CCN(c2ccccc2F)CC1` [Ned-19]: in assay [1], the “whole-endolysosome patch clamp, HEK293 vacuoles, 100 nM” value is on record as “Ned-19 inhibited the R210C currents at both potentials with fast kinetics”.

Consider `CCCCCCCC(=O)OC[C@H](COP(=O)(O)O[C@@H]1[C@H](O)[C@H](OP(=O)(O)O)[C@@H](O)[C@H](OP(=O)(O)O)[C@H]1O)OC(=O)CCCCCCC` [PI(3,5)P2-diC8], for which the EC50 in assay [2] stood at 2.27 ± 0.25 nM; in assay [3], 19.4 ± 0.74 nM; in assay [4], 209 ± 19.2 nM.

The term EC50 denotes the concentration giving half of the maximal effect. The low end stands for greater potency, the high end for weaker potency.
